Source: patent US10239843B2 (CANCER RESEARCH TECHNOLOGY LIMITED, priority 2014, dated 2019)
pIC50: −log10 of the molar value. Like-named read-outs stand apart in the source and are kept apart here.

What was measured:
PARG in HeLa cell line = experiment: PARG cell assay (PAR chain immunofluorescence after MMS); format: cell-based; conditions: HeLa cells, MMS treatment, read-out: PARG Cell IC50
Outline: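 Nuclear poly(ADP-ribose) chains in HeLa cells are read by indirect immunofluorescence with a mouse anti-PAR antibody applied overnight at 4° C after fixing and permeabilising. Cells get 1 h of compound, then 50 μg/mL MMS (final) for another hour. PAR persisting at that point reflects PARG inhibition.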

Human Full Length PARG = Human Full Length PARG (Homo sapiens (Human), UniProt Q86W56); experiment: PARG enzyme assay (TR-FRET); format: biochemical; conditions: read-out: PARG Biochem IC50
Human Full Length PARG, sequence (Q86W56 whole entry): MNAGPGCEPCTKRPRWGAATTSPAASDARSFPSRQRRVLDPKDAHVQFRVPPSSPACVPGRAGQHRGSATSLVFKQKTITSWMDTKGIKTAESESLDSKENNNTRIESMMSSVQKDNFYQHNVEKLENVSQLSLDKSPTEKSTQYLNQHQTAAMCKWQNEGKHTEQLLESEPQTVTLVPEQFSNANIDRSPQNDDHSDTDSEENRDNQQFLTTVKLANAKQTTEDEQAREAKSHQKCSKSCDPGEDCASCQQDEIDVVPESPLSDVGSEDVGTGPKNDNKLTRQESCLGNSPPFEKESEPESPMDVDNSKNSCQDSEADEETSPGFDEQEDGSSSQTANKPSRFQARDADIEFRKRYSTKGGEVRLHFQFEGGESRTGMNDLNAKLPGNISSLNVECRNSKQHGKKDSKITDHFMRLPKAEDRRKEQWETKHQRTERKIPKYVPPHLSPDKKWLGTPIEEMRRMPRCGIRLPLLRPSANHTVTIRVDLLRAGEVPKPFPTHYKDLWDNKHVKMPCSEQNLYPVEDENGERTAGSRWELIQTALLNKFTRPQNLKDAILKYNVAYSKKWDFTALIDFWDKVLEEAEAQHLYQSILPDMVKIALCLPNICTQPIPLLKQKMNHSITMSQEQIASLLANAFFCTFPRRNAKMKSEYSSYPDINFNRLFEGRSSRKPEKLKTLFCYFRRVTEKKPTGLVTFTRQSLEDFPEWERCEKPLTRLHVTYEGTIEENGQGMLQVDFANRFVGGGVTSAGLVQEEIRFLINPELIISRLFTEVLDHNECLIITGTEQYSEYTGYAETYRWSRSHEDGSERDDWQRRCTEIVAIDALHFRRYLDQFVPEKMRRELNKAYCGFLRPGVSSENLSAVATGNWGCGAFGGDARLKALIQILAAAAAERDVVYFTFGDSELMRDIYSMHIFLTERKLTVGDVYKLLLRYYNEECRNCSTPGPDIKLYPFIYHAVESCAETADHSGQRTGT

Row | Compound | pIC50 (PARG in HeLa cell line; Homo sapiens) | pIC50 (Human Full Length PARG) | pIC50 (PARG in HeLa cell line)
1 | Cc1nc(Cn2c(=O)n(Cc3cnn(C)c3)c(=O)c3cc(S(=O)(=O)NC4(CF)CC4)ccc32)n(C)n1 [Example 547, 1-[(2,5-Dimethyl-1,2,4-triazol-3-yl)methyl]-N-[1-(fluoromethyl)cyclopropyl]-3-[(1-methylpyrazol-4-yl)methyl]-2,4-dioxo-quinazoline-6-sulfonamide] | 6.12 | 6.73 | –
2 | Cc1ncc(Cn2c(=O)n(Cc3cnn(C)c3)c(=O)c3cc(S(=O)(=O)NC4(CF)CC4)ccc32)o1 [Example 548, N-[1-(Fluoromethyl)cyclopropyl]-1-[(2-methyloxazol-5-yl)methyl]-3-[(1-methylpyrazol-4-yl)methyl]-2,4-dioxo-quinazoline-6-sulfonamide] | 7.20 | 7.47 | –
3 | CC(C)Cn1c(=O)n(Cc2cnn(C)c2)c(=O)c2cc(S(=O)(=O)NC3(CF)CC3)ccc21 [Example 549, N-[1-(Fluoromethyl)cyclopropyl]-1-isobutyl-3-[(1-methylpyrazol-4-yl)methyl]-2,4-dioxo-quinazoline-6-sulfonamide] | – | 6.85 | 7.04
4 | Cc1cc(Cn2c(=O)c3cc(S(=O)(=O)NC4(CF)CC4)ccc3n(Cc3csc(C)n3)c2=O)on1 [Example 550, N-[1-(Fluoromethyl)cyclopropyl]-3-[(3-methylisoxazol-5-yl)methyl]-1-[(2-methylthiazol-4-yl)methyl]-2,4-dioxo-quinazoline-6-sulfonamide] | – | 6.72 | 6.87
5 | Cc1cc(Cn2c(=O)c3cc(S(=O)(=O)NC4(CF)CC4)ccc3n(Cc3nncn3C)c2=O)on1 [Example 551, N-[1-(Fluoromethyl)cyclopropyl]-3-[(3-methylisoxazol-5-yl)methyl]-1-[(4-methyl-1,2,4-triazol-3-yl)methyl]-2,4-dioxo-quinazoline-6-sulfonamide] | 4.69 | 6.39 | –
6 | Cc1cc(Cn2c(=O)c3cc(S(=O)(=O)NC4(CF)CC4)ccc3n(Cc3nnc(C)s3)c2=O)on1 [Example 552, N-[1-(Fluoromethyl)cyclopropyl]-3-[(3-methylisoxazol-5-yl)methyl]-1-[(5-methyl-1,3,4-thiadiazol-2-yl)methyl]-2,4-dioxo-quinazoline-6-sulfonamide] | 6.80 | 6.76 | –
7 | Cc1cc(Cn2c(=O)c3cc(S(=O)(=O)NC4(CF)CC4)ccc3n(Cc3ncn(C)n3)c2=O)on1 [Example 553, N-[1-(Fluoromethyl)cyclopropyl]-3-[(3-methylisoxazol-5-yl)methyl]-1-[(1-methyl-1,2,4-triazol-3-yl)methyl]-2,4-dioxo-quinazoline-6-sulfonamide] | – | 6.35 | 5.82
8 | Cc1cc(Cn2c(=O)c3cc(S(=O)(=O)NC4(CF)CC4)ccc3n(Cc3nc(C)nn3C)c2=O)on1 [Example 554, 1-[(2,5-Dimethyl-1,2,4-triazol-3-yl)methyl]-N-[1-(fluoromethyl)cyclopropyl]-3-[(3-methylisoxazol-5-yl)methyl]-2,4-dioxo-quinazoline-6-sulfonamide] | 6.22 | 6.30 | –
9 | Cc1cc(Cn2c(=O)c3cc(S(=O)(=O)NC4(CF)CC4)ccc3n(Cc3cnn(C)c3)c2=O)on1 [Example 555, N-[1-(Fluoromethyl)cyclopropyl]-3-[(3-methylisoxazol-5-yl)methyl]-1-[(1-methylpyrazol-4-yl)methyl]-2,4-dioxo-quinazoline-6-sulfonamide] | 7.07 | 7.31 | –
10 | Cc1cc(Cn2c(=O)c3cc(S(=O)(=O)NC4(CF)CC4)ccc3n(Cc3nnc(C)o3)c2=O)on1 [Example 556, N-[1-(Fluoromethyl)cyclopropyl]-3-[(3-methylisoxazol-5-yl)methyl]-1-[(5-methyl-1,3,4-oxadiazol-2-yl)methyl]-2,4-dioxo-quinazoline-6-sulfonamide] | 5.99 | 6.46 | –
11 | Cc1cc(Cn2c(=O)c3cc(S(=O)(=O)NC4(CF)CC4)ccc3n(Cc3ncnn3C)c2=O)on1 [Example 557, N-[1-(Fluoromethyl)cyclopropyl]-3-[(3-methylisoxazol-5-yl)methyl]-1-[(2-methyl-1,2,4-triazol-3-yl)methyl]-2,4-dioxo-quinazoline-6-sulfonamide] | 6.07 | 6.43 | –
12 | Cc1cc(Cn2c(=O)c3cc(S(=O)(=O)NC4(CF)CC4)ccc3n(Cc3noc(C)n3)c2=O)on1 [Example 558, N-[1-(Fluoromethyl)cyclopropyl]-3-[(3-methylisoxazol-5-yl)methyl]-1-[(5-methyl-1,2,4-oxadiazol-3-yl)methyl]-2,4-dioxo-quinazoline-6-sulfonamide] | 6.75 | 6.68 | –
13 | Cc1cc(Cn2c(=O)c3cc(S(=O)(=O)NC4(CF)CC4)ccc3n(Cc3cocn3)c2=O)on1 [Example 559, N-[1-(Fluoromethyl)cyclopropyl]-3-[(3-methylisoxazol-5-yl)methyl]-1-(oxazol-4-ylmethyl)-2,4-dioxo-quinazoline-6-sulfonamide] | 7.22 | 7.07 | –
14 | Cn1cc(Cn2c(=O)c3cc(S(=O)(=O)NC4(CF)CC4)ccc3n(CCn3cccn3)c2=O)cn1 [Example 560, N-[1-(Fluoromethyl)cyclopropyl]-3-[(1-methylpyrazol-4-yl)methyl]-2,4-dioxo-1-(2-pyrazol-1-ylethyl)quinazoline-6-sulfonamide] | – | 6.28 | 6.09
15 | Cc1cc(Cn2c(=O)n(Cc3cnn(C)c3)c(=O)c3cc(S(=O)(=O)NC4(CF)CC4)ccc32)[nH]n1 [Example 561, N-[1-(Fluoromethyl)cyclopropyl]-3-[(1-methylpyrazol-4-yl)methyl]-1-[(3-methyl-1H-pyrazol-5-yl)methyl]-2,4-dioxo-quinazoline-6-sulfonamide] | 6.24 | 7.02 | –
16 | Cn1cc(Cn2c(=O)c3cc(S(=O)(=O)NC4(CF)CC4)ccc3n(Cc3ncnn3C)c2=O)cn1 [Example 562, N-[1-(Fluoromethyl)cyclopropyl]-3-[(1-methylpyrazol-4-yl)methyl]-1-[(2-methyl-1,2,4-triazol-3-yl)methyl]-2,4-dioxo-quinazoline-6-sulfonamide] | – | 6.72 | 6.22
17 | Cn1cc(Cn2c(=O)c3cc(S(=O)(=O)NC4(CF)CC4)ccc3n(Cc3cncs3)c2=O)cn1 [Example 563, N-[1-(Fluoromethyl)cyclopropyl]-3-[(1-methylpyrazol-4-yl)methyl]-2,4-dioxo-1-(thiazol-5-ylmethyl)quinazoline-6-sulfonamide] | 7.18 | 8.10 | –

Further lines, results first:

Row | pIC50 (PARG in HeLa cell line; Homo sapiens) | pIC50 (Human Full Length PARG) | pIC50 (PARG in HeLa cell line) | Compound
18 | 6.90 | 7.42 | – | Cn1cc(Cn2c(=O)c3cc(S(=O)(=O)NC4(CF)CC4)ccc3n(Cc3cnco3)c2=O)cn1 [Example 564, N-[1-(Fluoromethyl)cyclopropyl]-3-[(1-methylpyrazol-4-yl)methyl]-1-(oxazol-5-ylmethyl)-2,4-dioxo-quinazoline-6-sulfonamide]
19 | 6.25 | 6.81 | – | Cn1cc(Cn2c(=O)c3cc(S(=O)(=O)NC4(CF)CC4)ccc3n(Cc3nccn3C)c2=O)cn1 [Example 565, N-[1-(Fluoromethyl)cyclopropyl]-1-[(1-methylimidazol-2-yl)methyl]-3-[(1-methylpyrazol-4-yl)methyl]-2,4-dioxo-quinazoline-6-sulfonamide]
20 | – | 6.16 | 6.25 | Cn1cc(Cn2c(=O)c3cc(S(=O)(=O)NC4(CF)CC4)ccc3n(CCc3ccccn3)c2=O)cn1 [Example 566, N-[1-(Fluoromethyl)cyclopropyl]-3-[(1-methylpyrazol-4-yl)methyl]-2,4-dioxo-1-[2-(2-pyridyl)ethyl]quinazoline-6-sulfonamide]
21 | 6.07 | 6.65 | – | Cc1nnc(Cn2c(=O)n(Cc3cnn(C)c3)c(=O)c3cc(S(=O)(=O)NC4(CF)CC4)ccc32)o1 [Example 567, N-[1-(Fluoromethyl)cyclopropyl]-1-[(5-methyl-1,3,4-oxadiazol-2-yl)methyl]-3-[(1-methylpyrazol-4-yl)methyl]-2,4-dioxo-quinazoline-6-sulfonamide]
22 | 5.28 | 7.00 | – | Cc1nc(Cn2c(=O)n(Cc3cnn(C)c3)c(=O)c3cc(S(=O)(=O)NC4(CF)CC4)ccc32)c[nH]1 [Example 568, N-[1-(Fluoromethyl)cyclopropyl]-1-[(2-methyl-1H-imidazol-4-yl)methyl]-3-[(1-methylpyrazol-4-yl)methyl]-2,4-dioxo-quinazoline-6-sulfonamide]
23 | 6.89 | 6.89 | – | Cc1cnc(Cn2c(=O)n(Cc3cnn(C)c3)c(=O)c3cc(S(=O)(=O)NC4(CF)CC4)ccc32)cn1 [Example 569, N-[1-(Fluoromethyl)cyclopropyl]-1-[(5-methylpyrazin-2-yl)methyl]-3-[(1-methylpyrazol-4-yl)methyl]-2,4-dioxo-quinazoline-6-sulfonamide]
24 | 6.62 | 6.90 | – | Cn1cc(Cn2c(=O)c3cc(S(=O)(=O)NC4(CF)CC4)ccc3n(CC3(CO)CC3)c2=O)cn1 [Example 570, N-[1-(Fluoromethyl)cyclopropyl]-1-[[1-(hydroxymethyl)cyclopropyl]methyl]-3-[(1-methylpyrazol-4-yl)methyl]-2,4-dioxo-quinazoline-6-sulfonamide]
25 | 6.43 | 6.48 | – | Cc1ccnc(Cn2c(=O)n(Cc3cnn(C)c3)c(=O)c3cc(S(=O)(=O)NC4(CF)CC4)ccc32)c1 [Example 571, N-[1-(Fluoromethyl)cyclopropyl]-3-[(1-methylpyrazol-4-yl)methyl]-1-[(4-methyl-2-pyridyl)methyl]-2,4-dioxo-quinazoline-6-sulfonamide]
26 | 6.78 | 7.15 | – | Cc1ccc(Cn2c(=O)n(Cc3cnn(C)c3)c(=O)c3cc(S(=O)(=O)NC4(CF)CC4)ccc32)cn1 [Example 573, N-[1-(Fluoromethyl)cyclopropyl]-3-[(1-methylpyrazol-4-yl)methyl]-1-[(6-methyl-3-pyridyl)methyl]-2,4-dioxo-quinazoline-6-sulfonamide]
